Assay results as given in patent US7842695B2, “Substituted pyrazole compounds” (Merck Patent GmbH, priority 2003, dated 2010).

target: 5-HT2A receptors (UniProt P14842); experiment: in-vitro affinity to 5-HT2A receptors, [3H]ketanserine displacement (Example A1); type: binding
Excerpt: The 5-HT2A receptors are exposed both to [^3H]ketanserine (a substance known for its affinity to the receptor) and also to the test compound. The decrease in the affinity of [^3H]ketanserine to the receptor is an indication of the affinity of the test substance to the 5-HT2A receptor.

Row | SMILES | IC50
1 | CN1CCN(Cc2cnn(-c3ccc(-c4ccc(C#N)s4)cc3)c2-c2ccccc2F)CC1 [Example 649, 5-{4-[5-(2-Fluorophenyl)-4-(4-methylpiperazin-1-ylmethyl)pyrazol-1-yl]phenyl}thiophene-2-carbonitrile] | 54 nM
2 | NC1CCN(Cc2cnn(-c3ccc(-c4ccc5c(c4)OCO5)cc3)c2-c2ccco2)CC1 [Example 631, 1-[1-(4-Benzo-1,3-dioxol-5-ylphenyl)-5-furan-2-yl-1H-pyrazol-4-ylmethyl]piperidin-4-ylamine] | 39 nM
3 | NC1CCN(Cc2cnn(-c3ccc(-c4cccc(F)c4)cc3)c2-c2ccco2)CC1 [Example 673, 1-[1-(3′-Fluorobiphenyl-4-yl)-5-furan-2-yl-1H-pyrazol-4-ylmethyl]piperidin-4-ylamine] | 120 nM
4 | CC(C)(C)OC(=O)NC1CCN(Cc2cnn(-c3ccc(-c4cccc(F)c4)cc3)c2-c2ccco2)CC1 [Example 608, tert-Butyl {1-[1-(3′-fluorobiphenyl-4-yl)-5-furan-2-yl-1H-pyrazol-4-ylmethyl]piperidin-4-yl}carbamate] | 29 nM
5 | Fc1ccc(-c2ccc(-n3ncc(CNC4CN5CCC4CC5)c3-c3ccco3)cc2)cc1 (stereo not drawn) [Example 681, (1-Azabicyclo[2.2.2]oct-3-yl)-[1-(4′-fluorobiphenyl-4-yl)-5-furan-2-yl-1H-pyrazol-4-ylmethyl]amine] | 180 nM
6 | OC1CCCN(Cc2cnn(-c3ccc(-c4ccc(F)cc4)cc3)c2-c2ccco2)C1 (stereo not drawn) [Example 646, 1-[1-(4′-Fluorobiphenyl-4-yl)-5-furan-2-yl-1H-pyrazol-4-ylmethyl]piperidin-3-ol] | 50 nM
7 | CN1CCN(Cc2cnn(-c3ccc(-c4ccc(F)cc4)cc3)c2-n2cccc2)CC1 [Example 658, 1-[1-(4′-Fluorobiphenyl-4-yl)-5-pyrrol-1-yl-1H-pyrazol-4-ylmethyl]-4-methylpiperazine] | 74 nM
8 | Fc1ccc(-c2ccc(-n3ncc(CN4CCN(C5CCCC5)CC4)c3-c3cccc(Cl)c3)cc2)cc1 [Example 686, 1-[5-(3-Chlorophenyl)-1-(4′-fluorobiphenyl-4-yl)-1H-pyrazol-4-ylmethyl]-4-cyclopentylpiperazine] | 200 nM
9 | Fc1ccc(-c2ccc(-n3ncc(CNC4CCCC4)c3-c3ccco3)cc2)cc1 [Example 568, Cyclopentyl-[1-(4′-fluorobiphenyl-4-yl)-5-furan-2-yl-1H-pyrazol-4-ylmethyl]amine] | 11 nM
10 | COc1ccc(-c2ccc(-n3ncc(CNCc4nccs4)c3-c3ccco3)cc2)cc1 [Example 688, [5-Furan-2-yl-1-(4′-methoxybiphenyl-4-yl)-1H-pyrazol-4-ylmethyl]thiazol-2-ylmethylamine] | 220 nM
11 | CCCN1CCN(Cc2cnn(-c3ccc(-c4ccc(F)cc4)cc3)c2-c2cccc(OC)c2)CC1 [Example 684, 1-[1-(4′-Fluorobiphenyl-4-yl)-5-(3-methoxyphenyl)-1H-pyrazol-4-ylmethyl]-4-propylpiperazine] | 190 nM
12 | CC(C)(C)OC(=O)NC1CCN(Cc2cnn(-c3ccc(-c4ccc5c(c4)OCCO5)cc3)c2-c2ccco2)CC1 [Example 566, tert-Butyl (1-{1-[4-(2,3-dihydrobenzo-1,4-dioxin-6-yl)phenyl]-5-furan-2-yl-1H-pyrazol-4-ylmethyl}piperidin-4-yl)carbamate] | 11 nM
13 | Cc1noc(C)c1-c1c(CN(C)C)cnn1-c1ccc(-c2ccc(F)cc2)cc1 [Example 577, [5-(3,5-Dimethylisoxazol-4-yl)-1-(4′-fluorobiphenyl-4-yl)-1H-pyrazol-4-ylmethyl]dimethylamine] | 16 nM
14 | Fc1ccc(-c2ccc(-n3ncc(CNCCc4ccncc4)c3-c3ccco3)cc2)cc1 [Example 655, [1-(4′-Fluorobiphenyl-4-yl)-5-furan-2-yl-1H-pyrazol-4-ylmethyl]-(2-pyridin-4-ylethyl)amine] | 67 nM
15 | Cc1noc(C)c1-c1c(CN2CCN(C)CC2)cnn1-c1ccc(-c2ccc(F)cc2)cc1 [Example 696, 1-[5-(3,5-Dimethylisoxazol-4-yl)-1-(4′-fluorobiphenyl-4-yl)-1H-pyrazol-4-ylmethyl]-4-methylpiperazine] | 320 nM
16 | CCCCN(Cc1cnn(-c2ccc(-c3ccc(F)cc3)cc2)c1-c1ccco1)Cc1cnn(-c2ccc(-c3ccc(F)cc3)cc2)c1-c1ccco1 [Example 622, Butylbis-[1-(4′-fluorobiphenyl-4-yl)-5-furan-2-yl-1H-pyrazol-4-ylmethyl]amine] | 34 nM
17 | OCC(O)CNCc1cnn(-c2ccc(-c3ccc(F)cc3)cc2)c1-c1ccco1 (stereo not drawn) [Example 680, 3-{[1-(4′-Fluorobiphenyl-4-yl)-5-furan-2-yl-1H-pyrazol-4-ylmethyl]amino}propane-1,2-diol] | 170 nM
18 | Fc1ccccc1-c1c(CN2CCN(Cc3ccccc3)CC2)cnn1-c1ccc(-c2ccccc2)cc1 [Example 679, 1-Benzyl-4-[1-biphenyl-4-yl-5-(2-fluorophenyl)-1H-pyrazol-4-ylmethyl]piperazine] | 170 nM
19 | CN1CCN(Cc2cnn(-c3ccc(-c4ccc5c(c4)OCCO5)cc3)c2-n2cccc2)CC1 [Example 651, 1-{1-[4-(2,3-Dihydrobenzo-1,4-dioxin-6-yl)phenyl]-5-pyrrol-1-yl-1H-pyrazol-4-ylmethyl}-4-methylpiperazine] | 55 nM
20 | CC(=O)N(CCN1CCCCC1)Cc1cnn(-c2ccc(-c3ccc(F)cc3)cc2)c1-c1ccco1 [Example 699, N-[1-(4′-Fluorobiphenyl-4-yl)-5-furan-2-yl-1H-pyrazol-4-ylmethyl]-N-(2-piperidin-1-ylethyl)acetamide] | 430 nM
21 | CC1CCCN1Cc1cnn(-c2ccc(-c3ccc4c(c3)OCO4)cc2)c1-c1ccco1 (stereo not drawn) [Example 616, 1-(4-Benzo-1,3-dioxol-5-ylphenyl)-5-furan-2-yl-4-(2-methylpyrrolidin-1-ylmethyl)-1H-pyrazole] | 32 nM
22 | CN1CCN(Cc2cnn(-c3ccc(-c4ccc(S(C)(=O)=O)cc4)cc3)c2-c2ccccc2F)CC1 [Example 663, 1-[5-(2-Fluorophenyl)-1-(4′-methanesulfonylbiphenyl-4-yl)-1H-pyrazol-4-ylmethyl]-4-methylpiperazine] | 85 nM
23 | OCCOCCNCc1cnn(-c2ccc(-c3ccc(F)cc3)cc2)c1-c1ccco1 [Example 666, 2-(2-{[1-(4′-Fluorobiphenyl-4-yl)-5-furan-2-yl-1H-pyrazol-4-ylmethyl]amino}ethoxy)ethanol] | 92 nM
24 | CC1CCCN1Cc1cnn(-c2ccc(-c3cccc(F)c3)cc2)c1-c1ccco1 (stereo not drawn) [Example 620, 1-(3′-Fluorobiphenyl-4-yl)-5-furan-2-yl-4-(2-methylpyrrolidin-1-ylmethyl)-1H-pyrazole] | 34 nM
25 | CCN(C)Cc1cnn(-c2ccc(-c3ccc(F)cc3)cc2)c1-c1c(C)noc1C [Example 597, [5-(3,5-Dimethylisoxazol-4-yl)-1-(4′-fluorobiphenyl-4-yl)-1H-pyrazol-4-ylmethyl]ethylmethylamine] | 23 nM
26 | O=C(O)Cc1cnn(-c2ccccc2F)c1-c1cccs1 [Example 678, 1-(2-Fluorophenyl)-5-(2-thienyl)-4-pyrazoleacetic acid] | 160 nM
27 | COc1ccc(-c2ccc(-n3ncc(CN4CCN(C)CC4)c3-c3ccccc3F)cc2)cn1 [Example 648, 1-{5-(2-Fluorophenyl)-1-[4-(6-methoxypyridin-3-yl)phenyl]-1H-pyrazol-4-ylmethyl}-4-methylpiperazine] | 53 nM
